Results reported in patent publication US9018214B2, “Bicyclic heterocycle compounds and their uses in therapy” (Astex Therapeutics Limited, priority 2011, dated 2015).
Where a name gives a salt, the structure may show the parent alone. Read-outs that look alike come from different tables or passages of the source.

Key:
[1] = molecular target: BIR3 domain of human XIAP (residues 252-350) (Homo sapiens (Human), UniProt P98170); assay: XIAP in vitro competitive displacement binding assay (fluorescence polarization); conditions: for IC50: read-out: IC50 or PI Xiap: IC50; for inhibition at 0.04 µM: 1 h, read-out: IC50 or PI Xiap: PI
[2] = molecular target: BIR3 domain of human cIAP-1 (residues 267-363) (Homo sapiens (Human), UniProt Q13490); assay: cIAP-1 in vitro competitive displacement binding assay (fluorescence polarization; Probe A AVPIK(5&6FAM)-amide or Probe B AbuRPFK(5&6FAM)-amide); conditions: for inhibition at […]: 3 h, read-out: IC50 or PI cIAP1: PI
[3] = system: EVSA-T (human breast carcinoma); assay: Anti-proliferative activity, Alamar Blue assay, EVSA-T; format: cell-based; conditions: Homo sapiens, EVSA-T; for inhibition at 10 µM: read-out: EVSA-T prolif: % inhibition
[4] = read-out: IC50 or PI cIAP1: IC50
[5] = 72 h, read-out: EVSA-T prolif (EC50)
[6] = 72 hours, Alamar Blue, read-out: EVSA-T prolif (EC50)
[7] = Probe B AbuRPFK(5&6FAM)-amide, read-out: IC50 or PI cIAP1: IC50

Row | inhibition at […] ([2]; Probe B, @ 0.012 μM) | EC50 [3, 6] | Compound | IC50 [1] | EC50 [3, 5] | further results
1 | – | – | COC[C@H]1CN[C@H](C)CN1CC(=O)N1CC(C)(C)c2ccc(S(=O)(=O)N(C)C)cc21 [Example 68, 1-[2-((2R,5R)-2-Methoxymethyl-5-methyl-piperazin-1-yl)-acetyl]-3,3-dimethyl-2,3-dihydro-1H-indole-6-sulfonic acid dimethylamide dihydrochloride salt] | 0.23 µM | 6.4 µM | IC50 [2, 4]: 1.2 µM; EC50 ([3]; 72 h, read-out: EC50, inhibition of cell growth): < 10 µM
2 | – | – | C[C@@H]1CN(CC(=O)N2CC(C)(C)c3ccc(Cl)cc32)[C@@H](CO)CN1 [Example 40, 1-(6-Chloro-3,3-dimethyl-2,3-dihydro-indol-1-yl)-2-((2R,5R)-2-hydroxymethyl-5-methyl-piperazin-1-yl)-ethanone hydrochloride salt] | 0.96 µM | – | IC50 [2]: < 1 µM; IC50 ([2]; Probe A AVPIK(5&6FAM)-amide, read-out: IC50 or PI cIAP1: IC50): 0.82 µM; inhibition at 10 µM ([3]; at 10 μM): 45%
3 | – | – | CCS(=O)(=O)c1ccc2c(c1)N(C(=O)CN1C[C@@H](C)NC[C@@H]1COC)CC2(C)C [Example 59, 1-(6-Ethane-sulfonyl-3,3-dimethyl-2,3-dihydro-indol-1-yl)-2-((2R,5R)-2-methoxymethyl-5-methyl-piperazin-1-yl)-ethanone dihydrochloride salt] | 0.31 µM | 9.7 µM | IC50 [2, 4]: 0.5 µM
4 | – | 0.6 µM | COC[C@H]1CN[C@H](C)CN1CC(=O)N1CC(C)(C)c2cnc(Oc3ccccc3Cl)cc21 [Example 110, 1-[6-(2-Chloro-phenoxy)-3,3-dimethyl-2,3-dihydro-pyrrolo[3,2-c]pyridin-1-yl]-2-((2R,5R)-2-methoxymethyl-5-methyl-piperazin-1-yl)-ethanone, hydrochloride salt] | 0.075 µM | – | IC50 [2, 7]: 0.035 µM
5 | 84% | 0.26 µM | C[C@@H]1CN(CC(=O)N2CC(C)(C)c3c[n+]([O-])c(Cc4ccc(F)cc4F)cc32)[C@@H](C(=O)N(C)C)CN1 [Example 167, (2R,5R)-1-(2-{6-[(2,4-Difluorophenyl)methyl]-3,3-dimethyl-5-oxo-1H,2H,3H-1,5λ^5-pyrrolo[3,2-c][1λ^5]pyridin-1-yl}-2-oxoethyl)-N,N,5-trimethylpiperazine-2-carboxamide hydrochloride] | 0.1 µM | – | –
6 | – | – | C[C@@H]1CN(CC(=O)N2CC(C)(C)c3ncc(Cc4ccc(F)cc4F)cc32)[C@@H](CN2CCOC2=O)CN1 [Example 200, 3-{[(2R,5R)-1-(2-{6-[(2,4-Difluorophenyl)methyl]-3,3-dimethyl-1H,2H,3H-pyrrolo[3,2-b]pyridin-1-yl}-2-oxoethyl)-5-methylpiperazin-2-yl]methyl}-1,3-oxazolidin-2-one dihydrochloride] | 0.074 µM | 0.0088 µM | inhibition at […] [2]: 96%
7 | 76% | 0.049 µM | C[C@@H]1CN(CC(=O)N2CC(C)(C)c3cnc(C(F)(F)c4ccccc4)cc32)[C@@H](CN2CCN(C)C2=O)CN1 [Example 197, 1-{[(2R,5R)-1-(2-{6-[Difluoro(phenyl)methyl]-3,3-dimethyl-1H,2H,3H-pyrrolo[3,2-c]pyridin-1-yl}-2-oxoethyl)-5-methylpiperazin-2-yl]methyl}-3-methylimidazolidin-2-one hydrochloride] | – | – | inhibition at 0.04 µM ([1]; @ 0.04 μM): 68%
8 | – | – | C[C@@H]1CN(CC(=O)N2CC(C)(C)c3ncc(Cc4ccccc4F)cc32)[C@@H](CN2CCOCC2)CN1 [Example 247, 1-{6-[(2-Fluorophenyl)methyl]-3,3-dimethyl-1H,2H,3H-pyrrolo[3,2-b]pyridin-1-yl}-2-[(2R,5R)-5-methyl-2-(morpholin-4-ylmethyl)piperazin-1-yl]ethan-1-one dihydrochloride] | 0.066 µM | 0.033 µM | inhibition at […] [2]: 80%
9 | – | – | C[C@@H]1CN(CC(=O)N2CC(C)(C)c3cnc(Oc4ccccc4Cl)cc32)[C@@H](C(=O)N2CCOCC2)CN1 [Example 165, 1-[6-(2-Chlorophenoxy)-3,3-dimethyl-1H,2H,3H-pyrrolo[3,2-c]pyridin-1-yl]-2-[(2R,5R)-5-methyl-2-[(morpholin-4-yl)carbonyl]piperazin-1-yl]ethan-1-one dihydrochloride] | – | 0.65 µM | inhibition at 0.04 µM [1]: 65%; IC50 [2]: < 1 µM; IC50 [2, 4]: 0.014 µM
10 | – | 0.16 µM | COC[C@H]1CN[C@H](C)CN1CC(=O)N1CC(C)(C)c2cnc(Cc3ccccc3F)cc21 [Example 77, 1-{6-[(2-Fluorophenyl)methyl]-3,3-dimethyl-1H,2H,3H-pyrrolo[3,2-c]pyridin-1-yl}-2-[(2R,5R)-2-(methoxy-methyl)-5-methyl-piperazin-1-yl]ethan-1-one] | 0.17 µM | – | IC50 [2, 7]: 0.009 µM
11 | – | – | C[C@@H]1CN(CC(=O)N2CC(C)(C)c3ncc(C(F)(F)CC4CC4)cc32)[C@@H](CN2CCOCC2)CN1 [Example 231, 1-[6-(2-Cyclopropyl-1,1-difluoroethyl)-3,3-dimethyl-1H,2H,3H-pyrrolo[3,2-b]pyridin-1-yl]-2-[(2R,5R)-5-methyl-2-(morpholin-4-ylmethyl)piperazin-1-yl]ethan-1-one dihydrochloride] | 0.065 µM | 0.067 µM | IC50 [2]: < 1 µM; IC50 [2, 4]: 0.0095 µM
12 | – | 6.8 µM | COC[C@H]1CN[C@H](C)CN1CC(=O)N1CC2(Cc3ccccc3C2)c2ccc(Cl)cc21 [Example 120, 1-{6′-Chloro-1,1′,2′,3-tetrahydrospiro[indene-2,3′-indole]-1′-yl}-2-[(2R,5R)-2-(methoxymethyl)-5-methylpiperazin-1-yl]ethan-1-one] | 0.26 µM | – | IC50 [2, 7]: 0.17 µM
13 | 97% | 0.0017 µM | Cc1nc(C)n(C[C@H]2CN[C@H](C)CN2CC(=O)N2CC(C)(C)c3cnc(Cc4ccc(F)cc4F)cc32)n1 [Example 206, 1-{6-[(2,4-Difluorophenyl)methyl]-3,3-dimethyl-1H,2H,3H-pyrrolo[3,2-c]pyridin-1-yl}-2-[(2R,5R)-2-[(dimethyl-1H-1,2,4-triazol-1-yl)methyl]-5-methylpiperazin-1-yl]ethan-1-one hydrochloride] | 0.079 µM | – | –
14 | – | – | COC[C@H]1CN[C@H](C)CN1CC(=O)N1CC(C)(C)c2ccc(S(=O)(=O)NC(C)C)cc21 [Example 69, 1-[2-((2R,5R)-2-Methoxymethyl-5-methyl-piperazin-1-yl)-acetyl]-3,3-dimethyl-2,3-dihydro-1H-indole-6-sulfonic acid isopropylamide dihydrochloride salt] | 0.28 µM | – | IC50 [2, 4]: 1.4 µM; inhibition at 10 µM [3]: 54%
15 | 73% | 0.038 µM | CC(C)CC(F)(F)c1cc2c(cn1)C(C)(C)CN2C(=O)CN1C[C@@H](C)NC[C@@H]1CN1CCOCC1 [Example 229, 1-[6-(1,1-Difluoro-3-methylbutyl)-3,3-dimethyl-1H,2H,3H-pyrrolo[3,2-c]pyridin-1-yl]-2-[(2R,5R)-5-methyl-2-(morpholin-4-ylmethyl)piperazin-1-yl]ethan-1-one hydrochloride] | – | – | inhibition at 0.04 µM ([1]; @ 0.04 μM): 53%
16 | 97% | 0.0046 µM | C[C@@H]1CN(CC(=O)N2CC(C)(C)c3cnc(Cc4ccc(F)cc4)cc32)[C@@H](CN2CCOCC2)CN1 [Example 237, 1-{6-[(4-Fluorophenyl)methyl]-3,3-dimethyl-1H,2H,3H-pyrrolo[3,2-c]pyridin-1-yl}-2-[(2R,5R)-5-methyl-2-(morpholin-4-ylmethyl)piperazin-1-yl]ethan-1-one hydrochloride] | 0.055 µM | – | –

Row | Compound | inhibition at […] ([2]; Probe B, @ 0.012 μM) | EC50 [3, 6] | IC50 [1] | EC50 [3, 5] | further results
17 | C[C@@H]1CN(CC(=O)N2CC(C)(C)c3ncc(Cc4ccc(F)cc4F)cc32)[C@@H](CN2CC[C@@H](F)C2)CN1 [Example 205, 1-{6-[(2,4-Difluorophenyl)methyl]-3,3-dimethyl-1H,2H,3H-pyrrolo[3,2-b]pyridin-1-yl}-2-[(2R,5R)-2-{[(3R)-3-fluoropyrrolidin-1-yl]methyl]-5-methylpiperazin-1-yl]ethan-1-one hydrochloride] | 97% | 0.019 µM | 0.1 µM | – | –
18 | C[C@@H]1CN(CC(=O)N2CC(C)(C)c3cnc(Cc4ccc(F)cc4F)cc32)[C@@H](Cn2ccccc2=O)CN1 [Example 193, 1-{[(2R,5R)-1-(2-{6-[(2,4-Difluorophenyl)methyl]-3,3-dimethyl-1H,2H,3H-pyrrolo[3,2-c]pyridin-1-yl}-2-oxoethyl)-5-methylpiperazin-2-yl]methyl}-1,2-dihydropyridin-2-one dihydrochloride] | – | 0.016 µM | – | – | inhibition at 0.04 µM [1]: 44%; inhibition at […] [2]: 98%
19 | C[C@@H]1CN(CC(=O)N2CC(C)(C)c3cnc(C(F)(F)c4ccccc4)cc32)[C@@H](C(=O)N2CCOCC2)CN1 [Example 178, 1-{6-[Difluoro(phenyl)methyl]-3,3-dimethyl-1H,2H,3H-pyrrolo[3,2-c]pyridin-1-yl}-2-[(2R,5R)-5-methyl-2-[(morpholin-4-yl)carbonyl]piperazin-1-yl]ethan-1-one dihydrochloride] | – | 0.067 µM | – | – | inhibition at 0.04 µM [1]: 50%; inhibition at […] [2]: 60%
20 | C[C@@H]1CN(CC(=O)N2CC(C)(C)c3cnc(Cc4ccc(F)cc4F)cc32)[C@@H](CN2CC[C@H](F)C2)CN1 [Example 202, 1-{6-[(2,4-Difluorophenyl)methyl]-3,3-dimethyl-1H,2H,3H-pyrrolo[3,2-c]pyridin-1-yl}-2-[(2R,5R)-2-{[(3S)-3-fluoropyrrolidin-1-yl]methyl}-5-methylpiperazin-1-yl]ethan-1-one diydrochloride] | 88% | – | 0.077 µM | 0.0021 µM | –
